Laboratory results reported in US20240199587A1, “HETEROCYCLIC COMPOUNDS” (Hoffmann-La Roche Inc., priority 2021, published 2024).

molecular target: T1, MAGL (Homo sapiens, UniProt Q99685); assay: 2-AG assay (MAGL inhibitory activity, hydrolysis of 2-arachidonoylglycerol to arachidonic acid followed by mass spectrometry); type: biochemical; settings: 8 μM 2-arachidonoylglycerol, 15 min pre-incubation, 30 min incubation at RT, RapidFire MS readout
T1 sequence (Q99685 1-303): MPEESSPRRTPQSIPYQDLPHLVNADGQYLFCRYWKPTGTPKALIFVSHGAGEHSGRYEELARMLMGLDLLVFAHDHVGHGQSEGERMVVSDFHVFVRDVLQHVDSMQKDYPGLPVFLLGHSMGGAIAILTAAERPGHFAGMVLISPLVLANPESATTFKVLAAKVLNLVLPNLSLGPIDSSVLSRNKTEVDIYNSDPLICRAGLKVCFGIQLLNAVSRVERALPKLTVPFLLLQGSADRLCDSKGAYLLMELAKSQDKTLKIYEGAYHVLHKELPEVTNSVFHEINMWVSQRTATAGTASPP
In short: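 Human MAGL ([…] final) pre-incubated 15 min at RT with compound in 50 mM TRIS, 1 mM EDTA, 0.01% Tween-20, 2.5% DMSO; 8 μM 2-AG then added for 30 min at RT. Acetonitrile quench with d8-arachidonic acid; arachidonic acid measured by RapidFire SPE–MS/MS, activity from arachidonic acid/d8 ratio.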

**Q.** For `CC(C)(Cc1cccc(OC2CN(C(=O)N3CC4(CC(n5cnc(C6CC6)n5)C4)C3)C2)c1)C(=O)O` [Example 299, 3-[3-[1-[6-(3-cyclopropyl-1,2,4-triazol-1-yl)-2-azaspiro[3.3]heptane-2-carbonyl]azetidin-3-yl]oxyphenyl]-2,2-dimethyl-propanoic acid], which IC50 is on record?
**A.** 0.0957 µM

**Q.** `Cc1oncc1S(=O)(=O)N1CC2(CN(C(=O)N3CC4(CC(n5cnc(C6CC6)n5)C4)C3)C2)C1` [Example 300, [6-(3-cyclopropyl-1,2,4-triazol-1-yl)-2-azaspiro[3.3]heptan-2-yl]-[2-(5-methylisoxazol-4-yl)sulfonyl-2,6-diazaspiro[3.3]heptan-6-yl]methanone] was tested. Which IC50 did it give?
**A.** 0.0957 µM

**Q.** How did the IC50 turn out when `O=C(N1CC(CNS(=O)(=O)c2ccc(F)cc2C(F)(F)F)C1)N1CC2(CC(n3cnc(C4CC4)n3)C2)C1` [Example 302] was run?
**A.** 0.101 µM

**Q.** Which IC50 does the source give for `O=C(N1CC(Oc2cncc(C(F)(F)F)n2)C1)N1CC2(CC(n3cnc(C4CC4)n3)C2)C1` [Example 303, [6-(3-cyclopropyl-1,2,4-triazol-1-yl)-2-azaspiro[3.3]heptan-2-yl]-[3-[6-(trifluoromethyl)pyrazin-2-yl]oxyazetidin-1-yl]methanone] here?
**A.** 0.101 µM

**Q.** With `O=C(N1CC2(CC(n3cnc(C4CC4)n3)C2)C1)N1CC2(C1)CN(S(=O)(=O)C(F)(F)F)C2` [Example 304, [6-(3-cyclopropyl-1,2,4-triazol-1-yl)-2-azaspiro[3.3]heptan-2-yl]-[2-(trifluoromethylsulfonyl)-2,6-diazaspiro[3.3]heptan-6-yl]methanone] as the compound, how does the IC50 read?
**A.** 0.108 µM

**Q.** How did the IC50 turn out when `NC(=O)C(c1ccc(F)cc1)C1CCN(C(=O)N2CC3(CC(n4cnc(C5CC5)n4)C3)C2)CC1` (stereo not drawn) [Example 305, 2-[1-[6-(3-cyclopropyl-1,2,4-triazol-1-yl)-2-azaspiro[3.3]heptane-2-carbonyl]-4-piperidyl]-2-(4-fluorophenyl)acetamide] was run?
**A.** 0.117 µM

**Q.** Which IC50 does the source give for `NC(=O)[C@H](c1ccc(F)cc1)N1CCN(C(=O)N2CC3(CC(n4cnc(C5CC5)n4)C3)C2)CC1` [Example 306, (2S)-2-[4-[6-(3-cyclopropyl-1,2,4-triazol-1-yl)-2-azaspiro[3.3]heptane-2-carbonyl]piperazin-1-yl]-2-(4-fluorophenyl)acetamide] here?
**A.** 0.129 µM

**Q.** With `O=C(N1CC(OCc2ccc(S(F)(F)(F)(F)F)cc2)C1)N1CC2(CC(n3cnc(C(F)(F)F)c3)C2)C1` [Example 307, [3-[[4-(pentafluoro-λ^6-sulfanyl)phenyl]methoxy]azetidin-1-yl]-[6-[4-(trifluoromethyl)imidazol-1-yl]-2-azaspiro[3.3]heptan-2-yl]methanone] as the compound, how does the IC50 read?
**A.** 0.136 µM

**Q.** `N#Cc1ccc(S(=O)(=O)N2CC3(CN(C(=O)N4CC5(CC(n6cnc(C7CC7)n6)C5)C4)C3)C2)cc1` [Example 308] was tested. Which IC50 did it give?
**A.** 0.138 µM

**Q.** Which IC50 does the source give for `COc1ncccc1S(=O)(=O)N1CC2(CN(C(=O)N3CC4(CC(n5cnc(C6CC6)n5)C4)C3)C2)C1` [Example 309, [6-(3-cyclopropyl-1,2,4-triazol-1-yl)-2-azaspiro[3.3]heptan-2-yl]-[2-[(2-methoxy-3-pyridyl)sulfonyl]-2,6-diazaspiro[3.3]heptan-6-yl]methanone] here?
**A.** 0.148 µM

**Q.** For `Nc1ncc(S(=O)(=O)N2CC3(CN(C(=O)N4CC5(CC(n6cnc(C7CC7)n6)C5)C4)C3)C2)cn1` [Example 310, [2-(2-aminopyrimidin-5-yl)sulfonyl-2,6-diazaspiro[3.3]heptan-6-yl]-[6-(3-cyclopropyl-1,2,4-triazol-1-yl)-2-azaspiro[3.3]heptan-2-yl]methanone], which IC50 is on record?
**A.** 0.154 µM

**Q.** For `CNC(=O)C(c1ccccc1)N1CC2(CN(C(=O)N3CC4(CC(n5cnc(C6CC6)n5)C4)C3)C2)C1` (stereo not drawn) [Example 311, 2-[2-[6-(3-cyclopropyl-1,2,4-triazol-1-yl)-2-azaspiro[3.3]heptane-2-carbonyl]-2,6-diazaspiro[3.3]heptan-6-yl]-N-methyl-2-phenyl-acetamide], which IC50 is on record?
**A.** 0.176 µM

**Q.** For `O=C(NCC(F)(F)F)c1cnn(C2CN(C(=O)N3CC4(CC(n5cnc(C6CC6)n5)C4)C3)C2)c1` [Example 312, 1-[1-[6-(3-cyclopropyl-1,2,4-triazol-1-yl)-2-azaspiro[3.3]heptane-2-carbonyl]azetidin-3-yl]-N-(2,2,2-trifluoroethyl)pyrazole-4-carboxamide], which IC50 is on record?
**A.** 0.202 µM

**Q.** `O=C(O)c1ccccc1CN1CC2(C1)CN(C(=O)N1CC3(CC(n4cnc(C5CC5)n4)C3)C1)C2` [Example 313, 2-[[2-[6-(3-cyclopropyl-1,2,4-triazol-1-yl)-2-azaspiro[3.3]heptane-2-carbonyl]-2,6-diazaspiro[3.3]heptan-6-yl]methyl]benzoic acid] was tested. Which IC50 did it give?
**A.** 0.206 µM

**Q.** `CN(C)S(=O)(=O)N1CC2(CN(C(=O)N3CC4(CC(n5cnc(C6CC6)n5)C4)C3)C2)C1` [Example 314, 6-[6-(3-cyclopropyl-1,2,4-triazol-1-yl)-2-azaspiro[3.3]heptane-2-carbonyl]-N,N-dimethyl-2,6-diazaspiro[3.3]heptane-2-sulfonamide] was tested. Which IC50 did it give?
**A.** 0.229 µM

**Q.** How did the IC50 turn out when `Cc1cn(C2CC3(C2)CN(C(=O)N2CC(OCc4ccc(S(F)(F)(F)(F)F)cc4)C2)C3)cn1` [Example 315, [6-(4-methylimidazol-1-yl)-2-azaspiro[3.3]heptan-2-yl]-[3-[[4-(pentafluoro-26-sulfanyl)phenyl]methoxy]azetidin-1-yl]methanone] was run?
**A.** 0.24 µM

**Q.** For `O=C(N1CC(Oc2nccc(C(F)(F)F)n2)C1)N1CC2(CC(n3cnc(C4CC4)n3)C2)C1` [Example 316, [6-(3-cyclopropyl-1,2,4-triazol-1-yl)-2-azaspiro[3.3]heptan-2-yl]-[3-[4-(trifluoromethyl)pyrimidin-2-yl]oxyazetidin-1-yl]methanone], which IC50 is on record?
**A.** 0.248 µM

**Q.** For `O=C(N1CC2(CC(n3cnc(C4CC4)n3)C2)C1)N1CC2(C1)CN(S(=O)(=O)c1cccnc1)C2` [Example 317, [6-(3-cyclopropyl-1,2,4-triazol-1-yl)-2-azaspiro[3.3]heptan-2-yl]-[2-(3-pyridylsulfonyl)-2,6-diazaspiro[3.3]heptan-6-yl]methanone], which IC50 is on record?
**A.** 0.274 µM

**Q.** Which IC50 does the source give for `O=C(N1CC2(CC(n3cnc(C4CC4)n3)C2)C1)N1CC2(C1)CN(S(=O)(=O)N1CCOCC1)C2` [Example 318, [6-(3-cyclopropyl-1,2,4-triazol-1-yl)-2-azaspiro[3.3]heptan-2-yl]-(2-morpholinosulfonyl-2,6-diazaspiro[3.3]heptan-6-yl)methanone] here?
**A.** 0.291 µM

**Q.** For `NS(=O)(=O)c1ccc(F)c(CC2CCN(C(=O)N3CC4(CC(n5cnc(C6CC6)n5)C4)C3)CC2)c1` [Example 319], which IC50 is on record?
**A.** 0.301 µM

**Q.** Which IC50 does the source give for `CCCS(=O)(=O)N1CC2(CN(C(=O)N3CC4(CC(n5cnc(C6CC6)n5)C4)C3)C2)C1` [Example 320, [6-(3-cyclopropyl-1,2,4-triazol-1-yl)-2-azaspiro[3.3]heptan-2-yl]-(2-propylsulfonyl-2,6-diazaspiro[3.3]heptan-6-yl)methanone] here?
**A.** 0.314 µM

**Q.** How did the IC50 turn out when `O=C(N1CCC(NS(=O)(=O)c2ccc(C(F)(F)F)cc2)CC1)N1CC2(CC(n3cnc(C4CC4)n3)C2)C1` [Example 321, N-[1-[6-(3-cyclopropyl-1,2,4-triazol-1-yl)-2-azaspiro[3.3]heptane-2-carbonyl]-4-piperidyl]-4-(trifluoromethyl) benzenesulfonamide] was run?
**A.** 0.331 µM

**Q.** For `O=C(N1CC(Oc2nnccc2C(F)(F)F)C1)N1CC2(CC(n3cnc(C4CC4)n3)C2)C1` [Example 322, [6-(3-cyclopropyl-1,2,4-triazol-1-yl)-2-azaspiro[3.3]heptan-2-yl]-[3-[4-(trifluoromethyl)pyridazin-3-yl]oxyazetidin-1-yl]methanone], which IC50 is on record?
**A.** 0.34 µM

**Q.** With `NC(=O)c1ccccc1S(=O)(=O)N1CC2(CN(C(=O)N3CC4(CC(n5cnc(C6CC6)n5)C4)C3)C2)C1` [Example 323, 2-[[6-[6-(3-cyclopropyl-1,2,4-triazol-1-yl)-2-azaspiro[3.3]heptane-2-carbonyl]-2,6-diazaspiro[3.3]heptan-2-yl]sulfonyl]benzamide] as the compound, how does the IC50 read?
**A.** 0.365 µM

**Q.** With `O=C(O)c1ccc(S(=O)(=O)N2CC3(CN(C(=O)N4CC5(CC(n6cnc(C7CC7)n6)C5)C4)C3)C2)cc1` [Example 324] as the compound, how does the IC50 read?
**A.** 0.402 µM

**Q.** How did the IC50 turn out when `O=C(N1CCC(CNS(=O)(=O)c2ccccc2)CC1)N1CC2(CC(n3cnc(C4CC4)n3)C2)C1` [Example 325, N-[[1-[6-(3-cyclopropyl-1,2,4-triazol-1-yl)-2-azaspiro[3.3]heptane-2-carbonyl]-4-piperidyl]methyl]benzene-sulfonamide] was run?
**A.** 0.482 µM

**Q.** How did the IC50 turn out when `NC(=O)[C@@H](c1ccc(F)cc1)N1CCN(C(=O)N2CC3(CC(n4cnc(C5CC5)n4)C3)C2)CC1` [Example 326, (2R)-2-[4-[6-(3-cyclopropyl-1,2,4-triazol-1-yl)-2-azaspiro[3.3]heptane-2-carbonyl]piperazin-1-yl]-2-(4-fluorophenyl)acetamide] was run?
**A.** 0.583 µM

**Q.** Which IC50 does the source give for `O=C(O)c1ccc(F)c(S(=O)(=O)N2CC3(CN(C(=O)N4CC5(CC(n6cnc(C7CC7)n6)C5)C4)C3)C2)c1` [Example 327] here?
**A.** 0.611 µM

**Q.** For `CCc1ncnn1C1CC2(C1)CN(C(=O)N1CC3(CC(Cc4ccc(F)cc4F)C3)C1)C2` [Example 328, [6-[(2,4-difluorophenyl)methyl]-2-azaspiro[3.3]heptan-2-yl]-[6-(5-ethyl-1,2,4-triazol-1-yl)-2-azaspiro[3.3]heptan-2-yl]methanone], which IC50 is on record?
**A.** 0.673 µM

**Q.** With `O=C(N1CC2(CC(n3cnc(C4CC4)n3)C2)C1)N1CC2(C1)CN(S(=O)(=O)CC(F)(F)F)C2` [Example 329, [6-(3-cyclopropyl-1,2,4-triazol-1-yl)-2-azaspiro[3.3]heptan-2-yl]-[2-(2,2,2-trifluoroethylsulfonyl)-2,6-diazaspiro[3.3]heptan-6-yl]methanone] as the compound, how does the IC50 read?
**A.** 0.743 µM
